In US20050186587A1, “Method for screening a substance which can suppress degradation of a nuclear receptor or a substance which can promote degradation of a nuclear receptor” (Interite, Inc., priority 2004, published 2005):
Where a SMILES comes first, the peptide text is derived from it. The star is where a group is joined. Cbz = O=C(OCc1ccccc1)*

Legend:
[1] = biological target: T1, ERα and CHIP (Homo sapiens, UniProt P03372); conditions: 293 cells, 24 hours, 10 nM estrogen, 1 μM tamoxifen (OHT) or 100 nM fulvestrant (ICI), FIG. 6
T1 sequence (P03372 1-595): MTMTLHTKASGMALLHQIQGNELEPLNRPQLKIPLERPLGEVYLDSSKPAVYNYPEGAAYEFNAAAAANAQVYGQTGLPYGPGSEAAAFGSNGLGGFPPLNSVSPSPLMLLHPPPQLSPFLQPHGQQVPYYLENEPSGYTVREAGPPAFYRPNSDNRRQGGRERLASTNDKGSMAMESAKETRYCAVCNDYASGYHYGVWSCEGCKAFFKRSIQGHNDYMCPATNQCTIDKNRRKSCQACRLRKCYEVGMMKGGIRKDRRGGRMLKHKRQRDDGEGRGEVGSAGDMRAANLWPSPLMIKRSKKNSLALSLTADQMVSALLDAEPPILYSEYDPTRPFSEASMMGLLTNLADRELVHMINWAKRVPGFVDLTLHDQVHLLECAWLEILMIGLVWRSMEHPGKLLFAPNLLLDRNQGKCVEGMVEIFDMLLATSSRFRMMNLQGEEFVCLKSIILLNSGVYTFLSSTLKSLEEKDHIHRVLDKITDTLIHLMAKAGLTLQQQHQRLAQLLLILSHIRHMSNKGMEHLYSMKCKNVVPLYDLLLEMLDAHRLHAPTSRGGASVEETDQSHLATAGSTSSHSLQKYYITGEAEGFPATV
Experimental: (§1) The target DNA was diluted with 100 μL of OptiMEM medium (Life Technologies, Inc.). The amount of DNA was adjusted to a total of 1 μg by addition of blank vector. 10 μL of lipofectamine reagent (Life Technologies, Inc.) was diluted in the same way with 100 μL of OptiMEM medium. After being left at room temperature for 5 minutes, the two liquids were mixed and left for an additional 20 minutes to form a complex. This mixture was then dripped directly onto cells seeded on 12-well plates and cultured to 40-50% confluence in DMEM containing 0.2% FCS treated with activated charcoal, and transfection was performed. 6 hours after transfection normal medium was substituted, and after 24 hours' further culture the ligand was added.
GST pull-down was performed by well-known methods (Yanagisawa, J. et al, Molecular Cell (2002) March, 9(3):553-562). […]
Western blotting using the respective antibodies was accomplished by well-known methods (Yanagisawa, J. et al, Molecular Cell (2002) March, 9(3):553-562) with some alterations. […] Protein that reacted with the antibodies was made visible with an Amersham Pharmacia high-sensitivity chemical luminescence detection system (ECL). […]

[2] = biological target: T2, ERα (Homo sapiens, UniProt P03372); conditions: 293 cells, 24 hours, 1 μM OHT or 100 nM ICI (or estrogen), FIG. 7, FIGS. 8(a) and (b)
T2 sequence (P03372 1-595): T1 sequence (P03372 1-595)
Experimental: (§2) Western blotting using the respective antibodies was accomplished by well-known methods (Yanagisawa, J. et al, Molecular Cell (2002) March, 9(3):553-562) with some alterations. 10 μg of each extract of MCF-7 cells and 293 cells was isolated by 8% or 10% SDS-PAGE, and transferred to a nitrocellulose membrane. This membrane was incubated for 1 hour in a blocking solution of 1% BSA (bovine serum albumin) and 5% skim milk added to 25 mM tris-buffered saline containing 0.02% Tween20 (T-TBS), and then reacted with the respective antibodies for 1 hour at 25° C. After being washed 3 times for 10 minutes each in 25° C. T-TBS, the membranes were incubated for 1 minute at 25° C. with peroxidase-bound goat anti-mouse antibodies. Protein that reacted with the antibodies was made visible with an Amersham Pharmacia high-sensitivity chemical luminescence detection system (ECL).

[3] = biological target: T3, estrogen receptor alpha (ERα) (Homo sapiens, UniProt P03372); test: Amount of ERα in MCF-7 cell nucleus extracts by Western blotting (Test Example 1); format: cell-based; conditions: MCF-7 cells, MG132 at 1 μM, both with and without estrogen, FIG. 1(b) lanes 3 and 4
T3 construct: ERα was first purified from MCF-7 cell nucleus extract by immune precipitation; endogenous in cells; host or cells: MCF-7 cells
Experimental: (§3) HeLa cells, human breast cancer-derived MCF-7 cells and human fetal kidney-derived 293 cells were cultured at 37° C. in Dulbecco's modified Eagle's medium (DMEM) containing 10% FCS in humidified air containing 5% (partial pressure) carbon dioxide gas.
10 μg of each extract of MCF-7 cells and 293 cells was isolated by 8% or 10% SDS-PAGE, and transferred to a nitrocellulose membrane. This membrane was incubated for 1 hour in a blocking solution of 1% BSA (bovine serum albumin) and 5% skim milk added to 25 mM tris-buffered saline containing 0.02% Tween20 (T-TBS), and then reacted with the respective antibodies for 1 hour at 25° C. After being washed 3 times for 10 minutes each in 25° C. T-TBS, the membranes were incubated for 1 minute at 25° C. with peroxidase-bound goat anti-mouse antibodies. Protein that reacted with the antibodies was made visible with an Amersham Pharmacia high-sensitivity chemical luminescence detection system (ECL).

[4] = system: ERαΔAD; format: cell-based, human; conditions: 293 cells, 1 μM MG132, FIG. 2 lanes 2 and 4
Experimental: as §3, §1
10 μg of each extract of MCF-7 cells and 293 cells was isolated by 8% or 10% SDS-PAGE, and transferred to a nitrocellulose membrane. […] Protein that reacted with the antibodies was made visible with an Amersham Pharmacia high-sensitivity chemical luminescence detection system (ECL). […]

[5] = system: ERα, ERα(V364E), ERα(C447A), ERαΔAD or ERα(L540Q); test: Amount of normal and mutant ERα protein in 293 cells with proteasome inhibitor (Test Example 8, FIG. 11); format: cell-based, human; conditions: MG132 added to the cells, FIG. 11 lanes 1 through 5
Experimental: CHIP or CHIPΔUbox (a mutant having the ubiquitin ligase activity removed) were made to be expressed in cells already co-expressing normal ERα and a dominant negative mutant of ERα, and the transcriptional activation ability of ERα was measured. […] The amount of ERα in the cell nucleus extract was measured at the same time by Western blotting. ERα(V364E), ERα(C447A), ERαΔAD and ERα(L540Q) were used as the dominant negative mutants of ERα. […] ERαΔAD is a helix 12 deletion mutant, while ERα(L540Q) is a helix 12 single-residue substitution mutant, and the transcriptional activity of both is low because they can no longer bind to transcriptional activation factors. ERαΔAD and ERα(L540Q) are not temperature sensitive.
The amount of protein was also slightly lower in the case of ERαΔAD (See FIG. 11 lane 4).

[6] = biological target: T4, Flag-ERαΔAD (Homo sapiens, UniProt P03372); test: Ubiquitination of Flag-ERαΔAD expressed in 293 cells, immune precipitation and anti-ubiquitin Western blotting; format: cell-based; conditions: no estrogen added but MG132 added, FIG. 3 lane 3
T4 construct: ERαΔAD (1-534) consisting of amino acids 1 through 534; expressed in transfected cells; host or cells: 293 cells
T4 sequence (P03372 1-534): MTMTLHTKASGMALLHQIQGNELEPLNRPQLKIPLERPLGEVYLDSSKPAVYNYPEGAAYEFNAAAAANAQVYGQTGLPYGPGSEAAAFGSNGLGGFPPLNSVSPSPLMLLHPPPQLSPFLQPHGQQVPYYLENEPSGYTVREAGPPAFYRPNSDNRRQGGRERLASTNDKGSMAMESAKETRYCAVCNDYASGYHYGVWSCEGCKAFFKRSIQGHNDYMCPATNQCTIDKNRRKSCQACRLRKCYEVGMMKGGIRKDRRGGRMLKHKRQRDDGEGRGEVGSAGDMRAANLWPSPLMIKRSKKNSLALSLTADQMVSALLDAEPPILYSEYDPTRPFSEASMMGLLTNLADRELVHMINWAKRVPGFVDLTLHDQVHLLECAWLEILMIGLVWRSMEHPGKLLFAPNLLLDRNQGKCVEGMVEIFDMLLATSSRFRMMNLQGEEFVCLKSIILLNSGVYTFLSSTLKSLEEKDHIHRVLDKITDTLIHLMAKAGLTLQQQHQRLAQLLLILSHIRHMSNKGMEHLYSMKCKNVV
Experimental: About 50 μg of MCF-7 cell nucleus extract or 293 cell nucleus extract was incubated for 1 hour at 4° C. in 25 mM tris-buffered saline containing 0.1% Tween20 (T-TBS) together with 50 μg of either glutathione sepharose beads or anti-Flag tag antibody beads (Santa Cruz Biotechnology). Beads to which protein had bound were washed 4 times with 25 mM tris-buffered saline containing 0.1% Tween20 and centrifuged for 1 minute at 5000 rpm, and the beads were collected. Protein was eluted from the beads by boiling in loading buffer.
as §2

[7] = biological target: T5, estrogen receptor alpha (ERα), not bound to a ligand, P03372
T5 chain: T1 sequence (P03372 1-595)

[8] = biological target: ERαΔAD, P03372

C[C@]12CC[C@@H]3c4ccc(O)cc4C[C@@H](CCCCCCCCC[S+]([O-])CCCC(F)(F)C(F)(F)F)[C@H]3[C@@H]1CC[C@@H]2O (some centres unmarked) [fulvestrant]
co-precipitation of ERα with CHIP [1]: co-precipitated with CHIP only when cultured without the addition of a ligand | degradation of ERα by CHIP [2]: block degradation of ERα by CHIP

CC(C)C[C@@H](C=O)NC(=O)[C@H](CC(C)C)NC(=O)[C@H](CC(C)C)NC(=O)OCc1ccccc1 [MG132] (Cbz-Leu-Leu-Leu-aldehyde)
amount of ERα [3]: increased dramatically | degradation of ERαΔAD [4]: inhibited | amount of expression of mutant ERα versus normal ERα [5]: no difference between the various mutants and normal ERα | ubiquitinated ERαΔAD (Flag-ERαΔAD-Ub) [6]: strong accumulation of a polyubiquitin protein

B1: CHIP (carboxyl-terminus of Hsc70 interacting protein) (protein)
chain: MKGKEEKEGGARLGAGGGSPEKSPSAQELKEQGNRLFVGRKYPEAAACYGRAITRNPLVAVYYTNRALCYLKMQQHEQALADCRRALELDGQSVKAHFFLGQCQLEMESYDEAIANLQRAYSLAKEQRLNFGDDIPSALRIAKKKRWNSIEERRIHQESELHSYLSRLIAAERERELEECQRNHEGDEDDSHVRAQQACIEAKHDKYMADMDELFSQVDEKRKKRDIPDYLCGKISFELMREPCITPSGITYDRKDIEEHLQRVGHFDPVTGSPLTQEQFIPNLAMKEVIDAFISENGWVEDY
amount of degradation of ERα measured by Western blotting [7]: both ERαΔAD and ERα were strongly degraded when estrogen was not added (see FIG. 7, lane 3). This degradation increased when the expressed amount of CHIP was increased | amount of degradation of ERαΔAD measured by Western blotting [8]: both ERαΔAD and ERα were strongly degraded when estrogen was not added (see FIG. 7, lane 3). This degradation increased when the expressed amount of CHIP was increased
